Reference: patent EP2796042A1, “Compounds promoting plant growth” (Albert-Ludwigs-Universität Freiburg, priority 2013, dated 2014)

How the values were obtained:
[1] = tested on: Arabidopsis seedlings (Wild type Col 0); assay: Safener activity on seedlings grown in presence of inhibitory concentrations of auxin (IAA); type: in vivo, Arabidopsis thaliana; settings: for root growth in the presence of inhibitory concentrations of IAA: 100 µM compound, 2 µM IAA
Experimental: It was tested whether benzoic acid derivatives can counteract the activity of natural auxins (IAA) (Figure 17 and Figure 18). The experiments were carried out as described for Figure 10.

Arabidopsis seedlings [2] = assay: Activity of benzoic acid derivatives on root growth; type: in vivo, Arabidopsis thaliana; settings: AM supplemented with 100 µM compound
ADCS-RNAi seedlings = assay: Rescue of root growth arrest after conditional down regulation of GAT-ADCS (estradiol-inducible RNAi); type: in vivo, Arabidopsis thaliana; settings: EST-induced; 50µM compound for 6 days (Fig. 9C)
Poplar explants = assay: Induction of adventitious roots on poplar explants; type: in vivo; settings: 200 µM pABA
Text: Since pABA can stimulate adventitious development in Arabidopsis, we tested whether pABA could also promotes adventitious development on poplar, a commercially important tree.

Arabidopsis thaliana [3] = assay: Plants growing in soil and watered or sprayed with a solution of pABA; type: in vivo
Experimental: Arabidopsis plants were grown from seeds in pots in a mixture of soil and vermiculite and watered with tap water for 15 days. Then watering was stopped for 48h until soil looked dried at the surface of the pot. A total of 4 trails containing 51 pots each were divided into 2 parts. […] The other trails were sprayed with solutions described above. […] Plants growing in soil and watered or sprayed with a solution containing pABA

Lycopersicum esculentum = assay: Plants growing in agar plates supplemented with pABA; type: in vivo; settings: 200 µM pABA in agar plates, vs untreated plants
Text: (§1) They were 3 replicates for each experiment.

Arabidopsis thaliana [4] = assay: as above; type: in vivo; settings: 200 µM pABA in agar plates, vs untreated plants
Text: as §1

[5] = cited from earlier work
Arabidopsis seedlings [6] = assay: Root response to gravity after rotating agar plates by 135°; type: in vivo, Arabidopsis thaliana; settings: plates rotated to 135° for 3h (Fig. 10G)
Arabidopsis thaliana [7] = assay: Root growth and development of seedlings on AM medium with exogenous compound; type: in vivo; settings: for SULF inhibition on plant development: 100µM compound with 100µM sulfanilamide (Fig. 10F), 6 day-old; for plant-root waving: 100µM supplemented media (Fig. 10B)
Experimental: To get more insights into the pABA role on plant development, plants were grown in presence of pABA. […] Arabidopsis root waving occurs when plants are grown at the surface of an agar plate that is slightly tilted.

Zea mays = assay: Plants growing in soil and watered with a solution containing pABA; type: in vivo; settings: watered with 1 mM pABA; n=10
Experimental: Maize seeds were germinated in Petri® dishes containing deionized-water-humidified Whatman® paper. Germinations of equal size were transferred in pots (one per pot) containing a mixture of soil and vermiculite and watered with tap water for 30 days. Then watering was stopped for 48h until soil looked dried at the surface of the pot.

adcs-2 = assay: Homozygous adcs2 rescue experiment with pABA; type: in vivo, Arabidopsis thaliana; settings: opened siliques transplanted on medium supplemented with pABA
Text: adcs T-DNA mutants (SALK_095283 and SALK_034215) were in Arabidopsis thaliana (L.) Heynh., ecotype Columbia (Col-0) background and ugt75b (AY027263) in Landsberg erecta (Ler).

Lex::UGT75B = assay: Rescue of root defects of estradiol-induced Lex::UGT75B plants; type: in vivo, Arabidopsis thaliana
Text: Plant growth relies on auxin gradients maintained by series of auxin influx carriers of the AUXIN RESISTANT 1/ Like AUX1 (AUX/LAX) family, efflux facilitators such as ABCB/multi-drug resistance/P-glycoprotein (ABCB/MDR/PGP), and PIN-FORMED (PIN) proteins. PIN-proteins subcellular localization is highly dynamic and influenced by various internal and external signals, thereby directing and redirecting the intercellular fluxes of auxin[25]. […] During plant response to gravity, auxin transport through AtPIN2 plays a crucial role and pin2 mutants are unable to establish lateral auxin gradient after gravistimulation and therefore are agravitropic.

CCN(CC)CCOC(=O)c1ccc(N)cc1 [Procaine, procaine, reference compound]
root growth in the presence of inhibitory concentrations of IAA [1]: fully restored root growth

Nc1cccc(C(=O)O)c1 [mABA, 3-aminobenzoic acid]
root growth in the presence of inhibitory concentrations of IAA [1]: fully restored root growth

Nc1ccc(C(=O)O)cc1 [pABA, 4-aminobenzoic acid]
growth-inhibitory effects of IAA ([1]; 1 µM IAA + 100µM pABA): could antagonize
root growth in the presence of inhibitory concentrations of IAA [1]: fully restored root growth
root growth-promoting activity (Arabidopsis seedlings [2]): significant root growth-promoting activity
rescue of arrested roots (ADCS-RNAi seedlings): could be rescued
Adventitious root number (Poplar explants; n=20): 6.15
Entire plant fresh weight (Poplar explants; n=20): 216 ± 23.69 mg
Number of leaves (Poplar explants; n=20): 8.09±0.59
Roots fresh weight (Poplar explants; n=20): 68.68 mg
Roots fresh weight, percentage in brackets (Poplar explants; presumably increase vs control): 46%
more adventitious than control (Poplar explants; vs control): 129%
greater fresh weight than plant sprayed with only water (Arabidopsis thaliana [3]; foliar application of 1 mM pABA): 17.54%
fresh weight of Arabidopsis aerial parts, Sprayed (Arabidopsis thaliana [3]; sprayed with 1 mM pABA, n=51): 0,62 ± 0,02
fresh weight of Arabidopsis aerial parts, Watered (Arabidopsis thaliana [3]; watered with 1 mM pABA, n=51): 1,08 ± 0,03
induced fresh weight of Arabidopsis aerial parts on average (Arabidopsis thaliana [3]; watering with 1 mM pABA, vs water): 3.84%
adventitious roots (Lycopersicum esculentum; after 10 days): more adventitious roots
lateral roots (Lycopersicum esculentum; after 10 days): more lateral roots
root hairs (Lycopersicum esculentum; six days after germination): longer root hairs
adventitious roots (Arabidopsis thaliana [4]; after 10 days): more adventitious roots
lateral roots (Arabidopsis thaliana [4]; after 10 days): more lateral roots
root hairs (Arabidopsis thaliana [4]; six days after germination): longer root hairs
pKa value [5]: about 4.9
gravitropic response of Arabidopsis primary root (Arabidopsis seedlings [6]): increases gravitropic response
SULF inhibition on plant development (Arabidopsis thaliana [7]): reverted
plant-root waving (Arabidopsis thaliana [7]): suppressed
development of LR and AR (Arabidopsis thaliana [7]; 100µM supplemented media (Fig. 10C)): induces development of LR and AR
root hair length (Arabidopsis thaliana [7]; pABA treatment (Fig. 10D-E)): increases root hair length
Concentrations that inhibited root growth and promoted lateral and adventitious roots development as well as root hair growth (Arabidopsis thaliana [7]; wild type seedlings on AM, aerial part not affected): greater than 50 µM
Number of leaves (Zea mays): 6.58 ±0.14
Root weight (Zea mays): 7.85 ± 0.49 g
development of embryos arrested at the globular stage (adcs-2): could develop further

Nc1nc2c(c(=O)[nH]1)N(C=O)C(CNc1ccc(C(=O)N[C@@H](CCC(=O)O)C(=O)O)cc1)CN2 (stereo partly drawn) [5-FTHF, 5-formyl-tetrahydrofolate, reference compound]
root growth in the presence of inhibitory concentrations of IAA [1]: fully restored root growth
rescue of arrested roots (ADCS-RNAi seedlings): could be rescued
SULF inhibition on plant development (Arabidopsis thaliana [7]): reverted
plant-root waving (Arabidopsis thaliana [7]): not
phenocopy of the activity of pABA (Arabidopsis thaliana [7]; applied at similar concentrations as pABA): did not phenocopy the activity of pABA
root growth recovery upon strong UGT75B induction (Lex::UGT75B; 20µM EST, 400µM compound (Fig. 14)): very poorly
effect of supplementation on growth defects of β-estradiol-induced UGT75B plants (Lex::UGT75B; weak induction 0.1µM EST, 200µM 5-FTHF (Fig. 13E)): had no effect
